US8163724B2, “Glucocorticosteroids, processes for their preparation, pharmaceutical compositions containing them and their use in therapy” (AstraZeneca AB, priority 2007, dated 2012)

What follows are compounds tested against T1, recombinant human GR (Homo sapiens, UniProt P04150) (assay: Human Glucocorticoid Receptor (GR) Assay (fluorescence polarization, Panvera/Invitrogen kit)). Conditions: fluorescence polarization; GS Red tracer; 2 hours at room temperature; 100% control 10 μM Dexamethasone; read-out: Inhibition of GR binding, IC50.
T1 construct: purchased Panvera/Invitrogen P2812 (kit P2893)
T1 sequence (P04150 1-777): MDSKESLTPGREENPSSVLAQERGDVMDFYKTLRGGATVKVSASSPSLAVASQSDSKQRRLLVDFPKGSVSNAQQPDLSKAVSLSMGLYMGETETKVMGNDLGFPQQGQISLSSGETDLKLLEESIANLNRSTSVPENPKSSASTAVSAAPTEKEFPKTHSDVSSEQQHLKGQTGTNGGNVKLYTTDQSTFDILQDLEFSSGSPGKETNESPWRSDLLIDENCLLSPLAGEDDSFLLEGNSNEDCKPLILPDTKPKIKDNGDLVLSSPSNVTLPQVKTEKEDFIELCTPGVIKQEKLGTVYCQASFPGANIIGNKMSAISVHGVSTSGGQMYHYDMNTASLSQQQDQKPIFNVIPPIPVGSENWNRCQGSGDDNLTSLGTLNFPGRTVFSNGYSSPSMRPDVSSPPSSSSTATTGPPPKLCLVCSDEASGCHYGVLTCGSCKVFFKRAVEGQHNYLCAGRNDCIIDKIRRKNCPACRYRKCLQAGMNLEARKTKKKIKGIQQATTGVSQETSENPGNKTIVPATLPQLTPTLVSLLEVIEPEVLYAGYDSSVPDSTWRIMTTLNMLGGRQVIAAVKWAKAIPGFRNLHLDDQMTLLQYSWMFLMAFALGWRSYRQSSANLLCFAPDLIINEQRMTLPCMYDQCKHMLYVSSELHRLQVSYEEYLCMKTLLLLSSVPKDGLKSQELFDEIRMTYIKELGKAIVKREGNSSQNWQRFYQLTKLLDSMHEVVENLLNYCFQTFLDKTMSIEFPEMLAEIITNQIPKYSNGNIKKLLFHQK
Type: binding
Procedure, shortened: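 Fluorescence polarization competition with recombinant GR and GS Red fluorescent ligand plus stabilizing peptide and DTT in potassium phosphate/sodium molybdate/EDTA buffer with DMSO. Incubated 2 hours at room temperature in the dark; 0% control DMSO, 100% control 10 μM dexamethasone.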
`COCC(=O)O[C@]1(C(=O)SCC#N)CC[C@H]2[C@@H]3CCC4=Cc5c(cnn5-c5ccc(F)nc5)C[C@]4(C)[C@@]3(F)[C@@H](O)C[C@@]21C` [Example 205, (1R,3aS,3bS,10aS,10bR,11S,12aS)-1-{[(Cyanomethyl)sulfanyl]carbonyl}-10b-fluoro-7-(6-fluoropyridin-3-yl)-11-hydroxy-10a,12a-dimethyl-1,2,3,3a,3b,4,5,7,10,10a,10b,11,12,12a-tetradecahydrocyclopenta[5,6]naphtho[1,2-f]indazol-1-yl methoxyacetate] gave an IC50 of 1.4 nM.
Work on `COCC(=O)O[C@]1(C(=O)SCF)CC[C@H]2[C@@H]3CCC4=Cc5c(cnn5-c5ccc(F)nc5)C[C@]4(C)[C@@]3(F)[C@@H](O)C[C@@]21C` [Example 206, (1R,3aS,3bS,10aS,10bR,11S,12aS)-1-{[(Fluoromethyl)sulfanyl]carbonyl}-10b-fluoro-7-(6-fluoropyridin-3-yl)-11-hydroxyl-1,2,3,3a,3b,4,5,7,10,10a,10b,11,12,12a-tetradecahydrocyclopenta[5,6]naphtho[1,2-f]indazol-1-yl methoxyacetate] yielded an IC50 of 2.5 nM.
`C[C@]12Cc3cnn(-c4ccc(F)nc4)c3C=C1CC[C@H]1[C@@H]3CC[C@](OC(=O)C4CC4)(C(=O)SCC#N)[C@@]3(C)C[C@H](O)[C@@]12F` [Example 207, (1R,3aS,3bS,10aS,10bR,11S,12aS)-1-{[(Cyanomethyl)sulfanyl]carbonyl}-10b-fluoro-7-(6-fluoropyridin-3-yl)-11-hydroxy-10a,12a-dimethyl-1,2,3,3a,3b,4,5,7,10,10a,10b,11,12,12a-tetradecahydrocyclopenta[5,6]naphtho[1,2-f]indazol-1-yl cyclopropanecarboxylate] gave an IC50 of 3.3 nM.
Compound `C[C@]12Cc3cnn(-c4ccc(F)nc4)c3C=C1CC[C@H]1[C@@H]3CC[C@](OC(=O)C4CC4)(C(=O)SCF)[C@@]3(C)C[C@H](O)[C@@]12F` [Example 208, (1R,3aS,3bS,10aS,10bR,11S,12aS)-1-{[(Fluoromethyl)sulfanyl]carbonyl}-10b-fluoro-7-(6-fluoropyridin-3-yl)-11-hydroxy-10a,12a-dimethyl-1,2,3,3a,3b,4,5,7,10,10a,10b,11,12,12a-tetradecahydrocyclopenta[5,6]naphtho[1,2-f]indazol-1-yl cyclopropanecarboxylate] has an IC50 of 3.4 nM.
Compound `C[C@]12Cc3cnn(-c4ccc(F)nc4)c3C=C1CC[C@H]1[C@@H]3CC[C@](OC(=O)c4cocn4)(C(=O)SCC#N)[C@@]3(C)C[C@H](O)[C@@]12F` [Example 209, (1R,3aS,3bS,10aS,1.0bR,11S,12aS)-1-{[(Cyanomethyl)sulfanyl]carbonyl}-10b-fluoro-7-(6-fluoropyridin-3-yl)-11-hydroxy-10a,12a-dimethyl-1,2,3,3a,3b,4,5,7,10,10a,10b,11,12,12a-tetradecahydrocyclopenta[5,6]naphtho[1,2-f]indazol-1-yl 1,3-oxazole-4-carboxylate] has an IC50 of 3.6 nM.
In the case of `C[C@]12Cc3cnn(-c4ccc(F)nc4)c3C=C1CC[C@H]1[C@@H]3CC[C@](OC(=O)c4cocn4)(C(=O)SCF)[C@@]3(C)C[C@H](O)[C@@]12F` [Example 210, (1R,3aS,3bS,10aS,10bR,11S,12aS)-1-{[(Fluoromethyl)sulfanyl]carbonyl}-10b-fluoro-7-(6-fluoropyridin-3-yl)-11-hydroxy-10a,12a-dimethyl-1,2,3,3a,3b,4,5,7,10,10a,10b,11,12,12a-tetradecahydrocyclopenta[5,6]naphtho[1,2-f]indazol-1-yl 1,3-oxazole-4-carboxylate], the IC50 is reported as 2 nM.
With `C[C@]12Cc3cnn(-c4ccc(F)nc4)c3C=C1CC[C@H]1[C@@H]3CC[C@](OC(=O)c4ccco4)(C(=O)SCC#N)[C@@]3(C)C[C@H](O)[C@@]12F` [Example 211, (1R,3aS,3bS,10aS,10bR,11S,12aS)-1-{[(Cyanomethyl)sulfanyl]carbonyl}-10b-fluoro-7-(6-fluoropyridin-3-yl)-11-hydroxy-10a,12a-dimethyl-1,2,3,3a,3b,4,5,7,10,10a,10b,11,12,12a-tetradecahydrocyclopenta[5,6]naphtho[1,2-f]indazol-1-yl furan-2-carboxylate] the IC50 was 2.2 nM.
In the case of `C[C@]12Cc3cnn(-c4ccc(F)nc4)c3C=C1CC[C@H]1[C@@H]3CC[C@](OC(=O)c4ccco4)(C(=O)SCF)[C@@]3(C)C[C@H](O)[C@@]12F` [Example 212, (1R,3aS,3bS,10aS,10bR,11S,12aS)-1-{[(Fluoromethyl)sulfanyl]carbonyl}-10b-fluoro-7-(6-fluoropyridin-3-yl)-11-hydroxy-10a,12a-dimethyl-1,2,3,3a,3b,4,5,7,10a,10b,11,12,12a-tetradecahydrocyclopenta[5,6]naphtho[1,2-f]indazol-1-yl furan-2-carboxylate], the IC50 is reported as 2.1 nM.
Work on `CCC(=O)O[C@]1(C(=O)SCC#N)CC[C@H]2[C@@H]3C[C@H](C)C4=Cc5c(cnn5-c5ccc(F)cc5)C[C@]4(C)[C@H]3[C@@H](O)C[C@@]21C` [Example 213, (1R,3aS,3bS,5S,10aR,10bS,11S,12aS)-1-{[(Cyanomethyl)sulfanyl]carbonyl}-7-(4-fluorophenyl)-11-hydroxy-5,10a,12a-trimethyl-1,2,3,3a,3b,4,5,7,10,10a,10b,11,12,12a-tetradecahydrocyclopenta[5,6]naphtho[1,2-f]indazol-1-yl propanoate] yielded an IC50 of 11 nM.
With `CCC(=O)O[C@]1(C(=O)SCF)CC[C@H]2[C@@H]3C[C@H](C)C4=Cc5c(cnn5-c5ccc(F)cc5)C[C@]4(C)[C@H]3[C@@H](O)C[C@@]21C` [Example 214, (1R,3aS,3bS,5S,10aR,10bS,11S,12aS)-1-{[(Fluoromethyl)sulfanyl]carbonyl}-7-(4-fluorophenyl)-11-hydroxy-5,10a,12a-trimethyl-1,2,3,3a,3b,4,5,7,10,10a,10b,11,12,12a-tetradecahydrocyclopenta[5,6]naphtho[1,2-f]indazol-1-yl propanoate] the IC50 was 49 nM.
`COCC(=O)O[C@]1(C(=O)SCC#N)CC[C@H]2[C@@H]3C[C@H](C)C4=Cc5c(cnn5-c5ccc(F)cc5)C[C@]4(C)[C@H]3[C@@H](O)C[C@@]21C` [Example 215, (1R,3aS,3bS,5S,10aR,10bS,11S,12aS)-1-{[(Cyanomethyl)sulfanyl]carbonyl}-7-(4-fluorophenyl)-11-hydroxy-5,10a,12a-trimethyl-1,2,3,3a,3b,4,5,7,10,10a,10b,11,12,12a-tetradecahydrocyclopenta[5,6]naphtho[1,2-f]indazol-1-yl methoxyacetate] gave an IC50 of 51 nM.
In the case of `COCC(=O)O[C@]1(C(=O)SCF)CC[C@H]2[C@@H]3C[C@H](C)C4=Cc5c(cnn5-c5ccc(F)cc5)C[C@]4(C)[C@H]3[C@@H](O)C[C@@]21C` [Example 216, (1R,3aS,3bS,5S,10aR,10bS,11S,12aS)-1-{[(Fluoromethyl)sulfanyl]carbonyl}-7-(4-fluorophenyl)-11-hydroxy-5,10a,12a-trimethyl-1,2,3,3a,3b,4,5,7,10,10a,10b,11,12,12a-tetradecahydrocyclopenta[5,6]naphtho[1,2]-indazol-1-yl methoxyacetate], the IC50 is reported as 8.8 nM.
“(1R,3aS,3bS,10aR,10bS,11S,12aS)-1-{[(Cyanomethyl)sulfanyl]carbonyl}-7-(4-fluorophenyl)-11-hydroxy-10a,12a-dimethyl-1,2,3,3a,3b,4,5,7,10,10a,10b,11,12,12a-tetradecahydrocyclopenta[5,6]naphtho[1,2]-indazol-1-yl 2-methyltetrahydrofuran-2-carboxylate [Example 132]” was tested, and the IC50 was 4 nM.
